ChEMBL document CHEMBL3352165 (Eur J Med Chem, 2014)

Legend:
[1] = biological target: T1, Epidermal growth factor receptor (Homo sapiens, UniProt P00533); experiment: Inhibition of HER1 (unknown origin) assessed as reduction in autophosphorylation by ELISA method
[2] = biological target: T1, Epidermal growth factor receptor; conditions: A-431, 0.001 to 1 uM
Description: Inhibition of HER1 phosphorylation (unknown origin) expressed in human A431 cells at 0.001 to 1 uM incubated for 2 hrs by Western blot method

MRC5 = experiment: cells; conditions: Homo sapiens, MRC5, 72 h
Description: Cytotoxicity against human MRC5 cells assessed as inhibition of cell growth after 72 hrs by sulforhodamine B assay

BT-474 = experiment: Induction of apoptosis in human BT474 cells at 10 uM incubated for 12 hrs by propidium iodide staining based flow cytometry (reference value: 1%); assay type: functional

T1 sequence (P00533 whole entry): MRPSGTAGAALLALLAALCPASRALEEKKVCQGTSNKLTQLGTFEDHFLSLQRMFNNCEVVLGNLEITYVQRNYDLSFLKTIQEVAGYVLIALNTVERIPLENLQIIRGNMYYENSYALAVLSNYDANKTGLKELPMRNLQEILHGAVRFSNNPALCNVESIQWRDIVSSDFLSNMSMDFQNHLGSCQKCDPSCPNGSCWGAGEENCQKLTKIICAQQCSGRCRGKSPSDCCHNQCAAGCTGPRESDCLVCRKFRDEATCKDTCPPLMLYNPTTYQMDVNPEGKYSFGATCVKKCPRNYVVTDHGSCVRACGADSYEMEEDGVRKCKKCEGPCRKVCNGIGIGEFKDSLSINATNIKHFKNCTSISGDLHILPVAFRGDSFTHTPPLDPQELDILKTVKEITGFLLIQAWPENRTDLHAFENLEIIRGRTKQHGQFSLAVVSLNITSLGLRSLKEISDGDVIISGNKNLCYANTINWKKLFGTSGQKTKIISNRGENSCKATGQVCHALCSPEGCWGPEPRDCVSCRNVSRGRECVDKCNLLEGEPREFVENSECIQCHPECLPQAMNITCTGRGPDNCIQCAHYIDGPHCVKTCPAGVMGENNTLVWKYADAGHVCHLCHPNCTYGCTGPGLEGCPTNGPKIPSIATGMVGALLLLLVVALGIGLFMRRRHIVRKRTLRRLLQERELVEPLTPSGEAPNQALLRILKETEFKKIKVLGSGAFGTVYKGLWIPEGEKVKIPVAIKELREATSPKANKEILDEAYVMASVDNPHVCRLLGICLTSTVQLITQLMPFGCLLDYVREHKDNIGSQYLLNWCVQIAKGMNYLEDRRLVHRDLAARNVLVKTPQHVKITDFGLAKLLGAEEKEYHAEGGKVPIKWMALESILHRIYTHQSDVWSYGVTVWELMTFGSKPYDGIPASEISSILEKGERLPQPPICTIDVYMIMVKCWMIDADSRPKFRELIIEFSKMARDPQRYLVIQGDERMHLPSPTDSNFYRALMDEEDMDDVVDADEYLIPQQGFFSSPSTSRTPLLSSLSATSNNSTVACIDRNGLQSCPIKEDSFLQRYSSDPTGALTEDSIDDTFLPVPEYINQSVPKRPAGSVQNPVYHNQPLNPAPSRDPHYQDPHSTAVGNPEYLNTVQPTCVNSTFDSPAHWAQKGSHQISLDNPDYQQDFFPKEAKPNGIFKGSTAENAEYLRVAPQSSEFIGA

CN(C)[C@H](CS(C)(=O)=O)c1ccc(-c2ccc3ncnc(Nc4ccc(OCc5cccc(F)c5)c(Cl)c4)c3c2)o1
IC50 [1]: 4.1 nM | inhibition [2]: Dose-dependent effect | IC50 (MRC5): > 100000 nM | Activity (BT-474): 11%
